Source: PMC12298351, “Novel 3,19-(N-Phenyl-3-(4-fluorophenyl)-pyrazole) Acetal of Andrographolide Promotes Cell Cycle Arrest and Apoptosis in MDA-MB-231 Breast Cancer Cells” (Pharmaceuticals, 2025)

How the values were obtained:
HCT-116 = format: cell-based; details: HCT-116, Colon
TK-10 = format: cell-based; details: TK-10, Renal
MOLT-4 = details: MOLT-4, Leukemia
HCC-2998 = details: HCC-2998, Colon
HCT-15 = details: HCT-15, Colon
KM12 = details: KM12, Colon
SF-268 = details: SF-268, CNS
SF-539 = details: SF-539, CNS
SNB-75 = details: SNB-75, CNS
U251 = details: U251, CNS
SK-MEL-28 = details: SK-MEL-28, Melanoma
UACC-257 = details: UACC-257, Melanoma
IGROV1 = details: IGROV1, Ovarian
OVCAR-3 = details: OVCAR-3, Ovarian
A498 = details: A498, Renal
CAKI-1 = details: CAKI-1, Renal
PC-3 = details: PC-3, Prostate
MDA-MB-468 = details: MDA-MB-468, Breast
[1] = read-out: 50% lethal concentration (LC50)
[2] = read-out: 50% lethal concentration (LC50), Leukemia
[3] = read-out: 50% lethal concentration (LC50), Melanoma
[4] = read-out: 50% lethal concentration (LC50), Breast

SMILES: C=C1CCC2C3(C)COC(c4cn(-c5ccccc5)nc4-c4ccccc4)OC3CCC2(C)C1CC=C1C(=O)OCC1O (stereo not shown) [1a]
- GI50 (HCT-116): 1.61 µM
- Total growth inhibition (TGI) (HCT-116): 3.55 µM
- CC50 (HCT-116; [1]): 7.83 µM
- GI50 (TK-10): 1.78 µM
- Total growth inhibition (TGI) (TK-10): 3.39 µM
- CC50 (TK-10; [1]): 6.46 µM
- GI50 (HL-60(TB); Leukemia): 2.32 µM
- Total growth inhibition (TGI) (HL-60(TB); Leukemia): 7.4 µM
- CC50 (HL-60(TB); [2]): > 100 µM
- GI50 (MOLT-4): 1.97 µM
- Total growth inhibition (TGI) (MOLT-4): > 100 µM
- CC50 (MOLT-4; [1]): > 100 µM
- GI50 (SR; Leukemia): 3.79 µM
- Total growth inhibition (TGI) (SR; Leukemia): > 100 µM
- CC50 (SR; [2]): > 100 µM
- Total growth inhibition (TGI) (EKVX; Non-Small Cell Lung): 4.66 µM
- GI50 (EKVX; Non-Small-Cell Lung): 2.07 µM
- CC50 (EKVX; read-out: 50% lethal concentration (LC50), Non-Small Cell Lung): > 100 µM
- Total growth inhibition (TGI) (HOP-62; HOP-62, Non-Small Cell Lung): 3.84 µM
- GI50 (HOP-62; HOP-62, Non-Small-Cell Lung): 1.87 µM
- CC50 (HOP-62; read-out: 50% lethal concentration (LC50), HOP-62, Non-Small Cell Lung): 7.89 µM
- Total growth inhibition (TGI) (HOP-92; HOP-92, Non-Small Cell Lung): 2.99 µM
- GI50 (HOP-92; HOP-92, Non-Small-Cell Lung): 1.53 µM
- CC50 (HOP-92; read-out: 50% lethal concentration (LC50), HOP-92, Non-Small Cell Lung): 5.83 µM
- Total growth inhibition (TGI) (NCI-H460; NCI-H460, Non-Small Cell Lung): 3.35 µM
- GI50 (NCI-H460; NCI-H460, Non-Small-Cell Lung): 1.66 µM
- CC50 (NCI-H460; read-out: 50% lethal concentration (LC50), NCI-H460, Non-Small Cell Lung): 6.74 µM
- Total growth inhibition (TGI) (NCI-H522; NCI-H522, Non-Small Cell Lung): 3.86 µM
- GI50 (NCI-H522; NCI-H522, Non-Small-Cell Lung): 1.9 µM
- CC50 (NCI-H522; read-out: 50% lethal concentration (LC50), NCI-H522, Non-Small Cell Lung): 7.85 µM
- GI50 (HCC-2998): 1.68 µM
- Total growth inhibition (TGI) (HCC-2998): 3.11 µM
- CC50 (HCC-2998; [1]): 5.76 µM
- GI50 (HCT-15): 1.72 µM
- Total growth inhibition (TGI) (HCT-15): 3.45 µM
- CC50 (HCT-15; [1]): 6.91 µM
- GI50 (KM12): 2.06 µM
- Total growth inhibition (TGI) (KM12): 4.31 µM
- GI50 (SF-268): 3.2 µM
- Total growth inhibition (TGI) (SF-268): 20.5 µM
- CC50 (SF-268; [1]): > 100 µM
- GI50 (SF-539): 1.84 µM
- Total growth inhibition (TGI) (SF-539): 3.26 µM
- CC50 (SF-539; [1]): 5.77 µM
- GI50 (SNB-75): 1.36 µM
- Total growth inhibition (TGI) (SNB-75): 3.9 µM
- CC50 (SNB-75; [1]): 26.5 µM
- GI50 (U251): 1.84 µM
- Total growth inhibition (TGI) (U251): 3.71 µM
- CC50 (U251; [1]): 7.48 µM
- GI50 (LOX IMVI; Melanoma): 1.54 µM
- Total growth inhibition (TGI) (LOX IMVI; Melanoma): 3 µM
- CC50 (LOX IMVI; [3]): 5.85 µM
- GI50 (MALME-3M; Melanoma): 1.73 µM
- Total growth inhibition (TGI) (MALME-3M; Melanoma): 3.18 µM
- CC50 (MALME-3M; [3]): 5.88 µM
- GI50 (SK-MEL-28): 1.77 µM
- Total growth inhibition (TGI) (SK-MEL-28): 3.38 µM
- CC50 (SK-MEL-28; [1]): 6.45 µM
- GI50 (UACC-257): 1.9 µM
- Total growth inhibition (TGI) (UACC-257): 3.8 µM
- CC50 (UACC-257; [1]): 7.62 µM
- GI50 (IGROV1): 1.77 µM
- Total growth inhibition (TGI) (IGROV1): 3.44 µM
- CC50 (IGROV1; [1]): 6.66 µM
- GI50 (OVCAR-3): 1.82 µM
- Total growth inhibition (TGI) (OVCAR-3): 3.35 µM
- CC50 (OVCAR-3; [1]): 6.16 µM
- GI50 (A498): 2.34 µM
- Total growth inhibition (TGI) (A498): 6.47 µM
- CC50 (A498; [1]): 27.7 µM
- GI50 (ACHN; Renal): 1.64 µM
- Total growth inhibition (TGI) (ACHN; Renal): 3.05 µM
- CC50 (ACHN; read-out: 50% lethal concentration (LC50), Renal): 5.67 µM
- GI50 (CAKI-1): 1.86 µM
- Total growth inhibition (TGI) (CAKI-1): 4.81 µM
- GI50 (PC-3): 1.95 µM
- Total growth inhibition (TGI) (PC-3): 4.7 µM
- CC50 (PC-3; [1]): 66.9 µM
- GI50 (MDA-MB-231; MDA-MB-231, Breast): 1.72 µM
- Total growth inhibition (TGI) (MDA-MB-231; MDA-MB-231/ATCC, Breast): 3.25 µM
- CC50 (MDA-MB-231; read-out: 50% lethal concentration (LC50), MDA-MB-231/ATCC, Breast): 6.15 µM
- GI50 (HS 578T; Breast): 2.31 µM
- Total growth inhibition (TGI) (HS 578T; Breast): 6.54 µM
- CC50 (HS 578T; [4]): > 100 µM
- GI50 (T-47D; Breast): 1.42 µM
- Total growth inhibition (TGI) (T-47D; Breast): 3.47 µM
- CC50 (T-47D; [4]): 8.47 µM
- GI50 (MDA-MB-468): 1.69 µM
- Total growth inhibition (TGI) (MDA-MB-468): 3.34 µM
- CC50 (MDA-MB-468; [1]): 6.58 µM
